Reference: publication PMC3996151, “Safety and pharmacological characterization of the molecular tweezer CLR01 – a broad-spectrum inhibitor of amyloid proteins’ toxicity” (BMC Pharmacology & Toxicology, 2014)

Key:
[1] = Solubility in aqueous solutions; format: physicochemical
[2] = In vitro dephosphorylation by brain homogenate (inorganic phosphate release); format: in vitro ADME, mouse; details: positive control substrate, 1.5 mg mouse-brain homogenate
Experimental: Potential dephosphorylation of CLR01 was analyzed by incubating 100 nmol CLR01 with 0.08 units of alkaline phosphatase (ALP; calf intestinal alkaline phosphatase, Promega, Madison, Wisconsin) for 60 min at 60°C. One enzymatic unit is defined as the amount of enzyme required for catalyzing the hydrolysis of 1 μmol of p-nitrophenylphosphate per minute. p-Nitrophenylphosphate disodium salt at 5–50 nmol (Fisher, Waltham, Massachusetts) was used for generation of a standard curve. The amount of inorganic phosphate generated was measured spectrophotometrically using an EnzChek Phosphate Assay kit (Life Technologies, Carlsbad, California) according to the manufacturer’s instructions on a DU-640 spectrophotometer (Beckman Coulter, Brea, California) at λ = 360 nm. Baseline values were subtracted from readings and compared to the standard curve resulting from serial ALP reactions to calculate the amount of inorganic phosphate. Similarly, potential dephosphorylation of CLR01 by brain homogenates was measured. For these experiments, one brain hemisphere was homogenized by sonication in the presence of cOmplete protease-inhibitor cocktail (Roche, Penzberg, Germany). Protein concentration was measured using a BCA Protein Assay Kit (Pierce, Rockford, Illinois). […]

SMILES | Solubility in aqueous solutions [1] | Dephosphorylation by brain homogenate, % of the activity of 0.8 enzymatic units of ALP [2]
O=P(O)(O)Oc1c2c(c(O)c3c1C1CC3c3cc4c(cc31)C1CC4c3ccccc31)C1CC2c2cc3c(cc21)C1CC3c2ccccc21 [monophosphate metabolite] | soluble at millimolar concentrations | –
O=[N+]([O-])c1ccc(OP(=O)(O)O)cc1 [p-nitrophenylphosphate, reference compound] | – | 99 - 130%
